For 20 compounds, IC50 results are on record in BindingDB's records for doi:10.3109/14756360903179443 (Institute of Chemical Technology, 2010).

Counter-ions that a name gives are not always drawn.

The IC50 is the midpoint of a concentration-inhibition curve. Low values mean inhibition by little substance, high ones a need for much substance.

What all share (experiment): Biological Assay
Assay [1] has as its target T1, Dihydrofolate reductase (Pneumocystis carinii, UniProt P16184).
T1 sequence (P16184 whole entry): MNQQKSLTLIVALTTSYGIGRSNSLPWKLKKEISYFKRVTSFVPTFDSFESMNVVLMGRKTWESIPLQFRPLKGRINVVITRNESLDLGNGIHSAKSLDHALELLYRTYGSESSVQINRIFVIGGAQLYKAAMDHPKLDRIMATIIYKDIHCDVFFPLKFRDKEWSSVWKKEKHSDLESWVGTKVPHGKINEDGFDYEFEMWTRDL
The method, then: (§1) The synthesized compounds were evaluated for their ability to inhibit DHFR from pc, tg, ma, and rl using a continuous spectrophotometric assay measuring oxidation at […] of NADPH at 37°C under conditions of saturating substrate and cofactor as previously described [Broughton et al., Antimicrob. Agents Chemother., 35:1348-55; Chio et al., Antimicrob. Agents Chemother., 37:1914-23].

The target of assay [2] is T2, Dihydrofolate reductase (Rattus norvegicus, UniProt Q920D2).
T2 sequence (Q920D2 whole entry): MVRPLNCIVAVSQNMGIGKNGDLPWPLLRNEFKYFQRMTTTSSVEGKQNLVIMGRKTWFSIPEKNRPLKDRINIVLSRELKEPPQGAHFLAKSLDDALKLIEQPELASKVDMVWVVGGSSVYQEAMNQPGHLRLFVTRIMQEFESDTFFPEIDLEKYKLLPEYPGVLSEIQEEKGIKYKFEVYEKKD
The protocol:
as §1

In assay [3] the target is T3, Dihydrofolate reductase (Mycobacterium avium, UniProt O30463).
T3 sequence (O30463 whole entry): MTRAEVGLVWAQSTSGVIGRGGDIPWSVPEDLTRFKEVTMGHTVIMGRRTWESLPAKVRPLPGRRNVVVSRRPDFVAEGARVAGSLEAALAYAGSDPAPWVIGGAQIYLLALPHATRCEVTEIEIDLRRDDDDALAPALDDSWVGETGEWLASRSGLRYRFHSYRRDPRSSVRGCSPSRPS
The method, then: as §1

Assay [4] concerns the target T4, Bifunctional dihydrofolate reductase-thymidylate synthase (Toxoplasma gondii, UniProt Q07422).
T4 sequence (Q07422 whole entry): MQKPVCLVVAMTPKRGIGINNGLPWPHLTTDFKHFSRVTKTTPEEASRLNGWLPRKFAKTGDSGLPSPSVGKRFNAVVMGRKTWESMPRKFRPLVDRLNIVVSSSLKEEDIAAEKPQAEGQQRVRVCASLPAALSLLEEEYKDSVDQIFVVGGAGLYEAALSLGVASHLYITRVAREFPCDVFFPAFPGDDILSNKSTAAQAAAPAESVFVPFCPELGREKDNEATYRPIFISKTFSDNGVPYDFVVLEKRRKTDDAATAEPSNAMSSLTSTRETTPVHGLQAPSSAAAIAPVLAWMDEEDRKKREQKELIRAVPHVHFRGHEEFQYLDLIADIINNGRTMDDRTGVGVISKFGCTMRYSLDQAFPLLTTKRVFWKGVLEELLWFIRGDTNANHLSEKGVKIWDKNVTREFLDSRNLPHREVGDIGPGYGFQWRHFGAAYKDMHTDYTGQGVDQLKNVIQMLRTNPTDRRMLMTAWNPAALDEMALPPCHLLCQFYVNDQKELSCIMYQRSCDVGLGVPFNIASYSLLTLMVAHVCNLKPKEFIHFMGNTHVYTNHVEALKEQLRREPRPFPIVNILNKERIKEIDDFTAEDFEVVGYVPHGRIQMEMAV
The method, then:
as §1

`CC1(C)N=C(N)N=C(N)N1c1ccc(OCc2ccccc2)cc1`: the IC50 on Dihydrofolate reductase [1] amounted to 5.4 µM; on Dihydrofolate reductase [2], 0.12 µM; on Dihydrofolate reductase [3], 14.4 µM; in assay [4] it was 0.032 µM.
For `CC1(C)N=C(N)N=C(N)N1c1ccc(OCc2ccc(Cl)cc2Cl)cc1` [1-(4-(2,4-Dichlorobenzyloxy)phenyl)-6,6-dimethyl-1-,6-dihydro-1,3,5-triazine-2,4-diamine hydrochloride (B2-04)], in that order: 1.08 µM, 0.018 µM, 11.2 µM and 0.029 µM.
`CC1(C)N=C(N)N=C(N)N1c1ccc(OCc2ccccc2Cl)cc1` [1-(4-(2-Chlorobenzyloxy)phenyl)-6,6-dimethyl-1,6-dihydro-1,3,5-triazine-2,4-diamine hydrochloride (B2-03)]: the IC50 on Dihydrofolate reductase [1] was 2.53 µM; against Dihydrofolate reductase [2], 0.073 µM; on Dihydrofolate reductase [3] it was 10.3 µM; in assay [4], 0.04 µM.
Consider `CC1(C)N=C(N)N=C(N)N1c1ccc(OCc2cccc(Cl)c2)cc1` [1-(4-(3-Chlorobenzyloxy)phenyl)-6,6-dimethyl-1,6-dihydro-1,3,5-triazine-2,4-diamine hydrochloride (B2-02)], for which the IC50 against Dihydrofolate reductase [1] came to 1.11 µM; against Dihydrofolate reductase [2], 0.034 µM; against Dihydrofolate reductase [3], 4.08 µM; in assay [4] it was 0.02 µM.
For `CC1(C)N=C(N)N=C(N)N1c1ccc(OCc2ccc(Br)cc2)cc1` [1-(4-(4-Bromobenzyloxy)phenyl)-6,6-dimethyl-1,6-dihydro-1,3,5-triazine-2,4-diamine hydrochloride (B2-05)], in that order: 0.829 µM, 0.033 µM, 7.32 µM and 0.033 µM.
For `COc1ccc(COc2ccc(N3C(N)=NC(N)=NC3(C)C)cc2)cc1` [1-(4-(4-Methoxybenzyloxy)phenyl)-6,6-dimethyl-1,6-dihydro-1,3,5-triazine-2,4-diamine hydrochloride (B2-06)], in that order: 1.69 µM, 0.048 µM, 3.38 µM and 0.019 µM.
Regarding `CC1(C)N=C(N)N=C(N)N1c1ccc(OCc2ccc(-c3ccccc3)cc2)cc1` [1-(4-(Biphenyl-4-ylmethoxy)phenyl)-6,6-dimethyl-1,6-dihydro-1,3,5-triazine-2,4-diamine hydrochloride (B2-07)], the IC50 was 0.403 µM against Dihydrofolate reductase [1], 0.026 µM at Dihydrofolate reductase [2], 10.2 µM at Dihydrofolate reductase [3] and 0.012 µM in assay [4].
In the same order, the values of `CC1(C)N=C(N)N=C(N)N1c1ccc(OCCN2C(=O)c3ccccc3C2=O)cc1` [2-(2-(4-(4,6-Diamino-2,2-dimethyl-1,3,5-triazin-1(2H)-yl)phenoxy)ethyl)isoindoline-1,3-dione hydrochloride (A2-01)] are 15.4 µM, 1.16 µM, 44.6 µM and 0.424 µM.
In the same order, the values of `CC1(C)N=C(N)N=C(N)N1c1ccc(OCC(O)CN2C(=O)c3ccccc3C2=O)cc1` (stereo not given) [2-(3-(4-(4,6-Diamino-2,2-dimethyl-1,3,5-triazin-1(2H)-yl)phenoxy)-2-hydroxypropyl)isoindoline-1,3-dione hydrochloride (A2-04)] are 34.6 µM, 1.94 µM, 154 µM and 0.523 µM.
In the same order, the values of `CC1(C)N=C(N)N=C(N)N1c1ccc(OCCCN2C(=O)c3ccccc3C2=O)cc1` [2-(3-(4-(4,6-Diamino-2,2-dimethyl-1,3,5-triazin-1(2H)-yl)phenoxy)propyl)isoindoline-1,3-dione hydrochloride (A2-02)] are 6.49 µM, 0.556 µM, 35.2 µM and 0.169 µM.
For the compound `CC1(C)N=C(N)N=C(N)N1c1ccc(OCCCCN2C(=O)c3ccccc3C2=O)cc1` [2-(4-(4-(4,6-Diamino-2,2-dimethyl-1,3,5-triazin-1(2H)-yl)phenoxy)butyl)isoindoline-1,3-dione (A2-03)], the IC50 stood at 2.61 µM at Dihydrofolate reductase [1], 0.033 µM on Dihydrofolate reductase [2], 8.9 µM against Dihydrofolate reductase [3] and 0.079 µM in assay [4].
For `N=C(N)NC(=N)Nc1ccc(OCc2ccccc2)cc1` [N-[4-(Benzyloxy)phenyl]imidodicarbonimidic diamide hydrochloride (B1-01)], in that order: 132 µM, 132 µM, 132 µM and 132 µM.
In the case of `NC(N)=N/C(N)=N/c1ccc(OCc2ccc(-c3ccccc3)cc2)cc1` [N-[4-(Biphenyl-4-ylmethoxy)phenyl]imidodicarbonimidic diamide hydrochloride (B1-07)], the IC50 was 104 µM at Dihydrofolate reductase [1], 67 µM at Dihydrofolate reductase [2], 104 µM on Dihydrofolate reductase [3] and 111 µM in assay [4].
Take `N=C(N)NC(=N)Nc1ccc(OCCN2C(=O)c3ccccc3C2=O)cc1` [N-{4-[2-(1,3-Dioxo-1,3-dihydro-2H-isoindol-2-yl)ethoxy]phenyl}imidodicarbonimidic diamide hydrochloride (A1-01)]: the IC50 turned out to be 51.4 µM against Dihydrofolate reductase [1], 67.7 µM against Dihydrofolate reductase [2], 51.4 µM on Dihydrofolate reductase [3] and 40.3 µM in assay [4].
`N=C(N)NC(=N)Nc1ccc(OCCCN2C(=O)c3ccccc3C2=O)cc1` [N-{4-[3-(1,3-Dioxo-1,3-dihydro-2H-isoindol-2-yl)propoxy]phenyl}imidodicarbonimidic diamide hydrochloride (A1-02)]: the IC50 at Dihydrofolate reductase [1] was determined as 106 µM; at Dihydrofolate reductase [2], 106 µM; at Dihydrofolate reductase [3], 106 µM; in assay [4], 135 µM.
On to `NC(N)=N/C(N)=N/c1ccc(OCc2ccc(Cl)cc2Cl)cc1` [N-{4-[(2,4-Dichlorobenzyl)oxy]phenyl}imidodicarbonimidic diamide hydrochloride (B1-04)], for which the IC50 against Dihydrofolate reductase [1] amounted to 123 µM; on Dihydrofolate reductase [2], 27.9 µM; on Dihydrofolate reductase [3], 111 µM; in assay [4], 111 µM.
As to `N=C(N)NC(=N)Nc1ccc(OCc2ccccc2Cl)cc1` [N-{4-[(2-Chlorobenzyl)oxy]phenyl}imidodicarbonimidic diamide hydrochloride (B1-03)], the IC50 against Dihydrofolate reductase [1] stood at 293 µM; against Dihydrofolate reductase [2], 20.8 µM; on Dihydrofolate reductase [3] it was 152 µM; in assay [4], 9.95 µM.
In the same order, the values of `NC(N)=N/C(N)=N/c1ccc(OCc2cccc(Cl)c2)cc1` [N-{4-[(3-Chlorobenzyl)oxy]phenyl}imidodicarbonimidic diamide hydrochloride (B1-02)] are 104 µM, 68.7 µM, 63.8 µM and 58.5 µM.
In the case of `COc1cccc(COc2ccc(NC(=N)NC(=N)N)cc2)c1` [N-{4-[(3-Methoxybenzyl)oxy]phenyl}imidodicarbonimidic diamide hydrochloride (B1-06)], the IC50 came out at 15.5 µM at Dihydrofolate reductase [1], 14.7 µM on Dihydrofolate reductase [2], 15.5 µM at Dihydrofolate reductase [3] and 8.4 µM in assay [4].
On to `N=C(N)NC(=N)Nc1ccc(OCc2ccc(Br)cc2)cc1` [N-{4-[(4-Bromobenzyl)oxy]phenyl}imidodicarbonimidic diamide hydrochloride (B1-05)], for which the IC50 at Dihydrofolate reductase [1] amounted to 164 µM; against Dihydrofolate reductase [2], 74.9 µM; against Dihydrofolate reductase [3], 127 µM; in assay [4], 21.4 µM.
